From ChEMBL document CHEMBL5523739, “NN1213 - A Potent, Long-Acting, and Selective Analog of Human Amylin” (J Med Chem, 2024)
In brackets after ≈: the same amount, converted by molar mass. Bridge positions count the residues as written; N and C are the ends. Peptide text beside a SMILES is read from it.

Key:
[1] = target: T1, Amylin receptor AMY3; CALCR/RAMP3 (Homo sapiens, UniProt O60896+P30988); test: Agonist activity at human AMY3R complex of CTR/RAMP3 expressed in Baby hamster kidney cells incubated for 3 hrs followed by medium replacement without compound measured after 30 mins by luciferase reporter assay; format: functional, cell-based, Baby hamster kidney cell
T1 sequence (P30988 whole entry): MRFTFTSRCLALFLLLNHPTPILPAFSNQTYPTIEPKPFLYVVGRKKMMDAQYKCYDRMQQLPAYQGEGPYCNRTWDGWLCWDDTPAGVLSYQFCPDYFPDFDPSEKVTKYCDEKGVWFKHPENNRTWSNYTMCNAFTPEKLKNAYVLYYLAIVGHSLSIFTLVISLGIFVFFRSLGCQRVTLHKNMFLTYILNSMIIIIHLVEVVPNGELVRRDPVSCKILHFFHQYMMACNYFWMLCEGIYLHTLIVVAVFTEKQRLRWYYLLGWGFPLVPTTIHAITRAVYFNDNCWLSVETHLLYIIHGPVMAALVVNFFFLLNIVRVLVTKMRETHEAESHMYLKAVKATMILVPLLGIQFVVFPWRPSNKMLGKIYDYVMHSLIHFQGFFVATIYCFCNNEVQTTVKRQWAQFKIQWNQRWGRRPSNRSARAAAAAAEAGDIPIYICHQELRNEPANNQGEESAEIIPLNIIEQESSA
T1 sequence (O60896 whole entry): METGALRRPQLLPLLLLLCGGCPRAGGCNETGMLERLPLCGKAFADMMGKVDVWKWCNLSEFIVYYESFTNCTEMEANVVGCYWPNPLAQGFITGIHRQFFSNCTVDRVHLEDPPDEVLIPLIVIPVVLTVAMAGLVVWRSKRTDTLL

[2] = target: T2, Calcitonin receptor (Homo sapiens, UniProt P30988); test: Agonist activity at human CTR expressed in Baby hamster kidney cells incubated for 3 hrs followed by medium replacement without compound measured after 30 mins by luciferase reporter assay; format: functional, cell-based, Baby hamster kidney cell
T2 sequence (P30988 whole entry): T1 sequence (P30988 whole entry)

[3] = target: T1, Amylin receptor AMY3; CALCR/RAMP3; test: Displacement of 125I-rat amylin from human AMY3R complex of CTR/RAMP3 expressed in Baby hamster kidney cell membrane incubated for 120 mins by SPA method; format: cell membranes
[4] = Solubility of compound at pH 7.5 incubated overnight by UPLC analysis; format: physicochemical; details: buffer
[5] = Solubility of compound at pH 6.5 incubated overnight by UPLC analysis; format: physicochemical; details: buffer
[6] = Solubility of compound at pH 6 incubated overnight by UPLC analysis; format: physicochemical; details: buffer
[7] = Stability against amyloid fibril formation at pH 7.5 assessed as compound recovery at 1 uM measured after 45 hrs by ThT assay; format: physicochemical; details: pH 7.5, 45 h
[8] = Stability against amyloid fibril formation at pH 7.5 assessed as lag time at 1 uM measured after 45 hrs by ThT assay; format: physicochemical; details: pH 7.5, 45 h
[9] = Solubility of compound at pH 3 incubated overnight by UPLC analysis; format: physicochemical; details: buffer
[10] = Solubility of compound at pH 5 incubated overnight by UPLC analysis; format: physicochemical; details: buffer
[11] = Solubility of compound at pH 8 incubated overnight by UPLC analysis; format: physicochemical; details: buffer
[12] = target: T2, Calcitonin receptor; test: Displacement of 125I-Calcitonin from human CTR expressed in Baby hamster kidney cell membrane incubated for 120 mins by SPA method; format: cell membranes
[13] = target: T3, Calcitonin receptor (Rattus norvegicus, UniProt P32214); test: Agonist activity at rat CTR expressed in Baby hamster kidney cells incubated for 3 hrs by cAMP assay; format: functional, cell-based, Baby hamster kidney cell
T3 sequence (P32214 whole entry): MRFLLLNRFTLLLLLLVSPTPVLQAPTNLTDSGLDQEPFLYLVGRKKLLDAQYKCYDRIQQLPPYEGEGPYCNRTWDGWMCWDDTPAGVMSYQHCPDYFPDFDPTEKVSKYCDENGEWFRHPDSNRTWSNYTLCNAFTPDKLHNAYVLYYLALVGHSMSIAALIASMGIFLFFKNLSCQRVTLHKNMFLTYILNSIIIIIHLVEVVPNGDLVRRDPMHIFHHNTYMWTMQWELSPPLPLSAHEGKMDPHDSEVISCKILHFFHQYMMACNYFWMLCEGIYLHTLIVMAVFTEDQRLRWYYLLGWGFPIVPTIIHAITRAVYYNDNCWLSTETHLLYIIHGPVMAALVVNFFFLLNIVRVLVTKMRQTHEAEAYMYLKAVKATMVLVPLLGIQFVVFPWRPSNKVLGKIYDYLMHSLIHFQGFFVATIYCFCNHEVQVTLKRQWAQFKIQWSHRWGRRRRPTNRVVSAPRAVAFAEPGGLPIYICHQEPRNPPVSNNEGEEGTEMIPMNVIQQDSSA

[14] = target: T3, Calcitonin receptor; test: Displacement of 125I-Calcitonin from rat CTR expressed in Baby hamster kidney cell membrane incubated for 120 mins by SPA method; format: cell membranes
[15] = Solubility of compound at pH 7 incubated overnight by UPLC analysis; format: physicochemical; details: buffer
[16] = target: T4, Amylin receptor AMY3; CALCR/RAMP3 (Rattus norvegicus, UniProt P32214+Q9JJ73); test: Agonist activity at rat AMY3R complex of CTR/RAMP3 expressed in Baby hamster kidney cells incubated for 3 hrs by cAMP assay; format: functional, cell-based, Baby hamster kidney cell
T4 sequence (P32214 whole entry): T3 sequence (P32214 whole entry)
T4 sequence (Q9JJ73 whole entry): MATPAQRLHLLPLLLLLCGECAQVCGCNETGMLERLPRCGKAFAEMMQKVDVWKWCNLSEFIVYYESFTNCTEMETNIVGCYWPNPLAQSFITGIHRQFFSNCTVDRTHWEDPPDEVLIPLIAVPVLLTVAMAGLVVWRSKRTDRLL

[17] = Solubility of compound at pH 4 incubated overnight by UPLC analysis; format: physicochemical; details: buffer
[18] = target: T4, Amylin receptor AMY3; CALCR/RAMP3; test: Displacement of 125I-rat amylin from rat AMY3R complex of CTR/RAMP3 expressed in Baby hamster kidney cell membrane incubated for 120 mins by SPA method; format: cell membranes
[19] = species: Homo sapiens; test: Selectivity ratio of EC50 for human CTR expressed in Baby hamster kidney cells to EC50 for human AMY3R complex of CTR/RAMP3 expressed in Baby hamster kidney cells; format: cell-based
[20] = species: Rattus norvegicus; test: Selectivity ratio of EC50 for rat CTR expressed in Baby hamster kidney cells to EC50 for rat AMY3R complex of CTR/RAMP3 expressed in Baby hamster kidney cells; format: cell-based

| EC50 [1] [nM] | EC50 [2] [nM] | IC50 [3] [nM] | solubility [4] [µM] | solubility [5] [µM] | solubility [6] [µM] | Drug recovery [7] [%] | Time [8] [h] | solubility [9] [µM] | solubility [10] [µM] | solubility [11] [µM] | EC50 [13] [nM] | IC50 [14] [nM] | solubility [15] [µM] | EC50 [16] [nM] | solubility [17] [µM] | IC50 [18] [nM] | Structure (SMILES) | IC50 [12] [nM] | Ratio EC50 [19] | Ratio EC50 [20] |
| --- | --- | --- | --- | --- | --- | --- | --- | --- | --- | --- | --- | --- | --- | --- | --- | --- | --- | --- | --- | --- |
| 0.161 | 2.48 | 0.355 | ≥ 200 | 190 (≈ 747 µg/mL) | ≥ 200 | 100 | > 45 | ≥ 200 | ≥ 200 | ≥ 200 | 861 | 96.9 | ≥ 200 | 0.643 | ≥ 200 | 0.217 | CC[C@H](C)[C@H](NC(=O)[C@H](C)NC(=O)CNC(=O)[C@H](Cc1ccccc1)NC(=O)[C@H](CC(N)=O)NC(=O)[C@@H]1CCCN1C(=O)[C@H](CO)NC(=O)[C@H](CO)NC(=O)[C@H](Cc1c[nH]cn1)NC(=O)[C@H](CCCNC(=N)N)NC(=O)[C@H](CC(C)C)NC(=O)[C@H](Cc1ccccc1)NC(=O)[C@H](CC(=O)O)NC(=O)[C@H](C)NC(=O)[C@H](CC(C)C)NC(=O)[C@H](CCCNC(=N)N)NC(=O)[C@H](CCC(N)=O)NC(=O)[C@@H](NC(=O)[C@H](C)NC(=O)[C@@H]1CSSC[C@H](NC(=O)[C@@H](N)CCCCN)C(=O)N[C@@H](CC(N)=O)C(=O)N[C@@H]([C@@H](C)O)C(=O)N[C@@H](C)C(=O)N[C@@H]([C@@H](C)O)C(=O)N1)[C@@H](C)O)C(=O)N1CCC[C@H]1C(=O)N[C@@H](CO)C(=O)N[C@@H](CO)C(=O)N[C@H](C(=O)N[C@@H](CC(N)=O)C(=O)N[C@H](C(=O)NCC(=O)N[C@@H](CO)C(=O)N[C@@H](CC(=O)O)C(=O)N[C@H](C(=O)N[C@@H](Cc1ccc(O)cc1)C(N)=O)[C@@H](C)O)C(C)C)[C@@H](C)O | 19.5 | – | – |
| 1.54 | 1.37 | – | 7 (≈ 27.6 µg/mL) | 75 (≈ 296 µg/mL) | ≥ 200 | 0 | 0 | ≥ 200 | ≥ 200 | 15 (≈ 59.1 µg/mL) | – | – | 7 (≈ 27.6 µg/mL) | – | ≥ 200 | – | CC(C)C[C@H](NC(=O)[C@H](CCCNC(=N)N)NC(=O)[C@H](CCC(N)=O)NC(=O)[C@@H](NC(=O)[C@H](C)NC(=O)[C@@H]1CSSC[C@H](NC(=O)[C@@H](N)CCCCN)C(=O)N[C@@H](CC(N)=O)C(=O)N[C@@H]([C@@H](C)O)C(=O)N[C@@H](C)C(=O)N[C@@H]([C@@H](C)O)C(=O)N1)[C@@H](C)O)C(=O)N[C@@H](C)C(=O)N[C@@H](CC(=O)O)C(=O)N[C@@H](Cc1ccccc1)C(=O)N[C@@H](CC(C)C)C(=O)N[C@@H](CCCNC(=N)N)C(=O)N[C@@H](Cc1c[nH]cn1)C(=O)N[C@@H](CO)C(=O)N[C@@H](CO)C(=O)N[C@@H](CCC(N)=O)C(=O)N[C@@H](CC(N)=O)C(=O)N[C@@H](Cc1ccccc1)C(=O)NCC(=O)N[C@@H](C)C(=O)N1CCC[C@H]1C(=O)N[C@@H](CC(C)C)C(=O)N[C@@H](CO)C(=O)N[C@@H](CO)C(=O)N[C@H](C(=O)N[C@@H](CC(N)=O)C(=O)N[C@H](C(=O)NCC(=O)N[C@@H](CO)C(=O)N1CCC[C@H]1C(=O)N[C@H](C(=O)N[C@@H](Cc1ccc(O)cc1)C(N)=O)[C@@H](C)O)C(C)C)[C@@H](C)O (H-KCNTATCATQRLADFLRHSSQNFGAPLSSTNVGSPTY-NH2; disulfide 2-7) | – | 0.9 | – |
| 0.18 | 0.697 | – | ≥ 200 | ≥ 200 | ≥ 200 | 100 | > 45 | ≥ 200 | ≥ 200 | ≥ 200 | 14.3 | – | ≥ 200 | 0.463 | ≥ 200 | – | CC(C)C[C@H](NC(=O)[C@H](CCCNC(=N)N)NC(=O)[C@H](CCC(N)=O)NC(=O)[C@@H](NC(=O)[C@H](C)NC(=O)[C@@H]1CSSC[C@H](NC(=O)[C@@H](N)CCCCN)C(=O)N[C@@H](CC(N)=O)C(=O)N[C@@H]([C@@H](C)O)C(=O)N[C@@H](C)C(=O)N[C@@H]([C@@H](C)O)C(=O)N1)[C@@H](C)O)C(=O)N[C@@H](C)C(=O)N[C@@H](CC(=O)O)C(=O)N[C@@H](Cc1ccccc1)C(=O)N[C@@H](CC(C)C)C(=O)N[C@@H](CCCNC(=N)N)C(=O)N[C@@H](Cc1c[nH]cn1)C(=O)N[C@@H](CO)C(=O)N[C@@H](CO)C(=O)N[C@@H](CCC(N)=O)C(=O)N[C@@H](CC(N)=O)C(=O)N[C@@H](Cc1ccccc1)C(=O)NCC(=O)N[C@@H](C)C(=O)N1CCC[C@H]1C(=O)N[C@@H](CC(C)C)C(=O)N[C@@H](CO)C(=O)N[C@@H](CO)C(=O)N[C@H](C(=O)N1CCC[C@H]1C(=O)N[C@H](C(=O)NCC(=O)N[C@@H](CO)C(=O)N[C@@H](CC(=O)O)C(=O)N[C@H](C(=O)N[C@@H](Cc1ccc(O)cc1)C(N)=O)[C@@H](C)O)C(C)C)[C@@H](C)O (H-KCNTATCATQRLADFLRHSSQNFGAPLSSTPVGSDTY-NH2; disulfide 2-7) | – | 3.9 | 31 |
